Experimental findings from patent publication US10617680B2 (CELGENE QUANTICEL RESEARCH, INC., priority 2017, dated 2020) are described below.

Each structure is given as a SMILES string.

For the first experiment, the target named is CBP (Homo sapiens (Human), UniProt Q92793). Kind of experiment: In vitro CBP inhibition (AlphaScreen, biotinylated H4-tetraacetyl peptide).
CBP, sequence (Q92793 1081-1197): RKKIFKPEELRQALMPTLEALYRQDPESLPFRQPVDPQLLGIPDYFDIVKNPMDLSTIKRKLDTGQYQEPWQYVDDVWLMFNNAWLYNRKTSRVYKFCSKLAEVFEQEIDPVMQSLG
Details: not given
The experiment is classed as binding. In outline:
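His-tagged CBP expressed in E. coli (50 nM final) incubated with biotinylated H4K5/8/12/16(Ac) peptide (20 nM final) in 50 mM HEPES pH 7.3, 10 mM NaCl, 0.25 mM TCEP, 0.1% BSA, 0.005% Brij-35, 0.4% DMSO, 20 min at room temp.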
Turning to `Cn1cc(-c2cnn(CC3CC3)c2)c(-c2ccc(C#N)cc2)cc1=O` [Example 156, 4-[5-(1-cyclopropyl-methyl-1H-pyrazol-4-yl)-1-methyl-2-oxo-1,2-dihydro-pyridin-4-yl]-benzonitrile], the IC50 was 500 to 5000 nM.

In turn, `CCOc1cc(=O)n(C)cc1-c1cn(Cc2ccccc2)nc1NC(C)=O` [Example 187, N-[1-Benzyl-4-(4-ethoxy-1-methyl-6-oxo-1,6-dihydro-pyridin-3-yl)-1H-pyrazol-3-yl]-acetamide] returned an IC50 of 500 to 5000 nM.

The same experiment, now with this note: AlphaScreen, Table 29; read-out: CBP IC50.
On to `Cn1cc(-c2cnn(Cc3ccccc3)c2)c(-c2ccc(C#N)cc2)cc1=O` [Example 150, 4-(5-(1-benzyl-1H-pyrazol-4-yl)-1-methyl-2-oxo-1,2-dihydro-pyridin-4-yl)benzonitrile], for which the IC50 was less than 500 nM.

Consider `Cn1cc(-c2cnn(Cc3ccccc3)c2)c(-c2ccc(C(N)=O)cc2)cc1=O` [Example 151, 4-(5-(1-benzyl-1H-pyrazol-4-yl)-1-methyl-2-oxo-1,2-dihydro-pyridin-4-yl)benzamide], for which the IC50 was less than 500 nM.

As to `Cn1cc(-c2cnn(Cc3ccccc3)c2)c(-c2cn[nH]c2)cc1=O` [Example 152, 5-(1-benzyl-1H-pyrazol-4-yl)-1-methyl-4-(1H-pyrazol-4-yl) pyridin-2(1H)-one], the IC50 is less than 500 nM.

With `Cn1cc(-c2cnn(CC3CC3)c2)c(-c2ccc(Cl)cc2)cc1=O` [Example 153, 4-(4-chloro-phenyl)-5-(1-cyclopropylmethyl-1H-pyrazol-4-yl)-1-methyl-1H-pyridin-2-one], the IC50 is less than 500 nM.

For `Cn1cc(-c2cnn(Cc3ccccc3)c2)c(-c2ccc(C(=O)O)cc2)cc1=O` [Example 155, 4-(5-(1-benzyl-1H-pyrazol-4-yl)-1-methyl-2-oxo-1,2-dihydropyridin-4-yl)benzoic acid], the IC50 is less than 500 nM.

For `Cn1cc(-c2cnn(Cc3ccccc3)c2)c(-c2cnn(CC(N)=O)c2)cc1=O` [Example 158, 2-(4-(5-(1-benzyl-1H-pyrazol-4-yl)-1-methyl-2-oxo-1,2-dihydro-pyridin-4-yl)-1H-pyrazol-1-yl)acetamide], the IC50 is less than 500 nM.

With `Cn1cc(-c2cnn(Cc3ccccc3)c2)c(-c2cnn(C(F)F)c2)cc1=O` [Example 160, 5-(1-benzyl-1H-pyrazol-4-yl)-4-(1-(difluoromethyl)-1H-pyrazol-4-yl)-1-methylpyridin-2(1H)-one], the IC50 was less than 500 nM.

`Cn1cc(-c2cnn(Cc3ccccc3)c2)c(-c2cnn(CC(C)(C)O)c2)cc1=O` [Example 161, 5-(1-benzyl-1H-pyrazol-4-yl)-4-(1-(2-hydroxy-2-methylpropyl)-1H-pyrazol-4-yl)-1-methyl-pyridin-2(1H)-one]: the IC50 was less than 500 nM.

In the case of `Cn1cc(-c2cnn3c2CCC3)c(-c2ccccc2)cc1=O` [Example 162, 5-(5,6-dihydro-4H-pyrrolo[1,2-b]pyrazol-3-yl)-1-methyl-4-phenylpyridin-2(1H)-one], the IC50 was less than 500 nM.

`Cn1cc(-c2cnn(Cc3ccccc3)c2)c(-c2cnn(CC#N)c2)cc1=O` [Example 163, 2-(4-(5-(1-benzyl-1H-pyrazol-4-yl)-1-methyl-2-oxo-1,2-dihydropyridin-4-yl)-1H-pyrazol-1-yl)acetonitrile]: the IC50 is less than 500 nM.

With `Cc1c(-c2cn(C)c(=O)cc2-c2ccccc2)cnn1C` [Example 164, 5-(1,5-dimethyl-1H-pyrazol-4-yl)-1-methyl-4-phenylpyridin-2(1H)-one], the IC50 fell in the range of 500 to 5000 nM.

Regarding `CCCOc1cc(=O)n(C)cc1-c1cnn(Cc2ccccc2)c1` [Example 165, 5-(1-Benzyl-1H-pyrazol-4-yl)-1-methyl-4-propoxy-1H-pyridin-2-one], the IC50 was less than 500 nM.

Consider `Cn1cc(-c2cnn(Cc3ccccc3)c2)c(OCCC(=O)O)cc1=O` [Example 166, 3-[5-(1-Benzyl-1H-pyrazol-4-yl)-1-methyl-2-oxo-1,2-dihydro-pyridin-4-yloxy]-propionic acid], for which the IC50 is less than 500 nM.

With `Cn1cc(-c2cnn(Cc3ccccc3)c2)c(OCC#N)cc1=O` [Example 167, [5-(1-Benzyl-1H-pyrazol-4-yl)-1-methyl-2-oxo-1,2-dihydro-pyridin-4-yloxy]-acetonitrile], the IC50 is less than 500 nM.

Regarding `CCSc1cc(=O)n(C)cc1-c1cnn(Cc2ccccc2)c1` [Example 168, 5-(1-Benzyl-1H-pyrazol-4-yl)-4-ethylsulfanyl-1-methyl-1H-pyridin-2-one], the IC50 is less than 500 nM.

Turning to `Cn1cc(-c2cnn(Cc3ccccc3)c2)c(SCC(=O)O)cc1=O` [Example 169, [5-(1-Benzyl-1H-pyrazol-4-yl)-1-methyl-2-oxo-1,2-dihydro-pyridin-4-ylsulfanyl]-acetic acid], the IC50 was less than 500 nM.

As to `CNOc1cc(=O)n(C)cc1-c1cnn(Cc2ccccc2)c1` [Example 170, 5-(1-benzyl-1H-pyrazol-4-yl)-1-methyl-4-((methylamino)oxy)pyridin-2(1H)-one], the IC50 was less than 500 nM.

For `CCOc1cc(=O)n(C)cc1-c1cnn(CC2CC2(F)F)c1` (centres unmarked) [Example 171, 5-[1-(2,2-Difluoro-cyclopropylmethyl)-1H-pyrazol-4-yl]-4-ethoxy-1-methyl-1H-pyridin-2-one], the IC50 is less than 500 nM.

On to `CNS(=O)(=O)C1CCN(c2cc(=O)n(C)cc2-c2cnn(Cc3ccccc3)c2)C1` (centres unmarked) [Example 172, 1-(5-(1-benzyl-1H-pyrazol-4-yl)-1-methyl-2-oxo-1,2-dihydropyridin-4-yl)-N-methylpyrrolidine-3-sulfonamide], for which the IC50 is less than 500 nM.

`Cn1cc(-c2cnn(Cc3ccccc3)c2)c(N2CC[C@@H](NS(=O)(=O)C(F)(F)F)C2)cc1=O` [Example 173, (R)-N-(1-(5-(1-benzyl-1H-pyrazol-4-yl)-1-methyl-2-oxo-1,2-dihydropyridin-4-yl)pyrrolidin-3-yl)-1,1,1-trifluoromethanesulfonamide]: the IC50 lay in the range of 500 to 5000 nM.

`Cn1cc(-c2cnn(Cc3ccccc3)c2)c(N2CC[C@@H](NS(C)(=O)=O)C2)cc1=O` [Example 174, (R)-N-(1-(5-(1-benzyl-1H-pyrazol-4-yl)-1-methyl-2-oxo-1,2-dihydropyridin-4-yl)pyrrolidin-3-yl)methanesulfonamide]: the IC50 fell in the range of 500 to 5000 nM.

Regarding `COc1cc(=O)n(C)cc1-c1cnn(C(C)c2ccccc2)c1` (centres unmarked) [Example 175, 4-methoxy-1-methyl-5-(1-(1-phenylethyl)-1H-pyrazol-4-yl) pyridin-2(1H)-one], the IC50 is less than 500 nM.

Consider `CCOc1cc(=O)n(C)cc1-c1cnn(-c2cccc(C(C)C)c2C#N)c1` [Example 176, 2-[4-(4-Ethoxy-1-methyl-6-oxo-1,6-dihydro-pyridin-3-yl)-pyrazol-1-yl]-6-isopropyl-benzonitrile], for which the IC50 was less than 500 nM.

On to `CCOc1cc(=O)n(C)cc1-c1cnn(-c2cccc(OC)c2C#N)c1` [Example 177, 2-[4-(4-Ethoxy-1-methyl-6-oxo-1,6-dihydro-pyridin-3-yl)-pyrazol-1-yl]-6-methoxy-benzonitrile], for which the IC50 was less than 500 nM.

Consider `CCOc1cc(=O)n(C)cc1-c1cnn(-c2cccc(Cl)c2C#N)c1` [Example 178, 2-Chloro-6-[4-(4-ethoxy-1-methyl-6-oxo-1,6-dihydro-pyridin-3-yl)-pyrazol-1-yl]-benzonitrile], for which the IC50 is less than 500 nM.

Turning to `CCOc1cc(=O)n(C)cc1-c1cnn(-c2cccc(C)c2C#N)c1` [Example 179, 2-[4-(4-Ethoxy-1-methyl-6-oxo-1,6-dihydro-pyridin-3-yl)-pyrazol-1-yl]-6-methyl-benzonitrile], the IC50 is less than 500 nM.

For `CCOc1cc(=O)n(C)cc1-c1cnn(-c2ccccc2S(C)(=O)=O)c1` [Example 180, 4-Ethoxy-5-[1-(2-methanesulfonyl-phenyl)-1H-pyrazol-4-yl]-1-methyl-1H-pyridin-2-one], the IC50 is less than 500 nM.

`CCOc1cc(=O)n(C)cc1-c1cnn(C2CCCN(S(C)(=O)=O)C2)c1` (centres unmarked) [Example 181, 4-ethoxy-1-methyl-5-(1-(1-(methylsulfonyl)piperidin-3-yl)-1H-pyrazol-4-yl)pyridin-2(1H)-one]: the IC50 is less than 500 nM.

On to `CCOc1cc(=O)n(C)cc1-c1cnn(-c2cc(OC)ccc2C#N)c1` [Example 182, 2-[4-(4-Ethoxy-1-methyl-6-oxo-1,6-dihydro-pyridin-3-yl)-pyrazol-1-yl]-4-methoxy-benzonitrile], for which the IC50 was less than 500 nM.

With `CCOc1cc(=O)n(C)cc1-c1cnn(-c2cc(Oc3ccccc3)ccc2C#N)c1` [Example 183, 2-[4-(4-Ethoxy-1-methyl-6-oxo-1,6-dihydro-pyridin-3-yl)-pyrazol-1-yl]-4-phenoxy-benzonitrile], the IC50 is less than 500 nM.

Consider `CCOc1cc(=O)n(C)cc1-c1cnn(-c2cc(OC3CC3)ccc2C#N)c1` [Example 184, 4-Cyclopropoxy-2-[4-(4-ethoxy-1-methyl-6-oxo-1,6-dihydro-pyridin-3-yl)-pyrazol-1-yl]-benzonitrile], for which the IC50 is less than 500 nM.

As for `CCOc1cc(=O)n(C)cc1-c1cn(Cc2ccccc2)nc1[N+](=O)[O-]` [Example 185, 5-(1-benzyl-3-nitro-1H-pyrazol-4-yl)-4-ethoxy-1-methylpyridin-2(1H)-one], the IC50 is less than 500 nM.

Regarding `CCOc1cc(=O)n(C)cc1-c1cn(Cc2ccccc2)nc1N` [Example 186, 5-(3-amino-1-benzyl-1H-pyrazol-4-yl)-4-ethoxy-1-methylpyridin-2(1H)-one], the IC50 is less than 500 nM.

`Cc1cccc(C)c1-c1cc(=O)n(C)cc1-c1cnn(Cc2ccccc2)c1` [Example 189, 5-(1-Benzyl-1H-pyrazol-4-yl)-4-(2,6-dimethyl-phenyl)-1-methyl-1H-pyridin-2-one]: the IC50 is greater than 5000 nM.

As to `Cn1cc(-c2cnn(CC3CC3(F)F)c2)c(-c2ccccc2)cc1=O` (centres unmarked) [Example 190, 5-[1-(2,2-Difluoro-cyclopropylmethyl)-1H-pyrazol-4-yl]-1-methyl-4-phenyl-1H-pyridin-2-one], the IC50 was less than 500 nM.

For the molecule `COc1ccc(-c2cc(=O)n(C)cc2-c2cnn(CC3CC3(F)F)c2)cc1` (centres unmarked) [Example 191, 5-[1-(2,2-Difluoro-cyclopropylmethyl)-1H-pyrazol-4-yl]-4-(4-methoxy-phenyl)-1-methyl-1H-pyridin-2-one], the IC50 is less than 500 nM.
